Assay results from paper PMC8880315, “Understanding the Impact of Age-Related Changes in Pediatric GI Solubility by Multivariate Data Analysis” (Pharmaceutics, 2022).
Converted amounts (≈) assume the structure as drawn. Where two headings read alike, the source gives them in different places.

Tests used:
physchem [1] = details: adult fed state simulated gastric fluid (FeSSGF), milk-based, 37 °C, pH 5, fassgf or other biorelevant, thermodynamic from solid
[2] = cited from earlier work
physchem [3] = details: 37 °C, thermodynamic from solid
[4] = parameters: method as in PMID 26220249; details: cited from earlier work
[5] = Table 1, reference per cell, none given for mebendazole
[6] = adult fasted state simulated gastric fluid (FaSSGF), pH 1.6, fassgf or other biorelevant
[7] = adult fasted state simulated intestinal fluid (FaSSIF-V2), pH 6.5, fassif
[8] = adult fed state simulated intestinal fluid (FeSSIF-V2), pH 5.8, fessif
[9] = at least one of the newborn FeSSIF (Pnb-FeSSIF and Pnc-FeSSIF), previous solubility study

OCCN(CCO)c1nc(N2CCCCC2)c2nc(N(CCO)CCO)nc(N3CCCCC3)c2n1 [Dipyridamole]
solubility at 48 h (physchem [1]): 158 ± 7.22 µg/mL (≈ 314 µM)
pKa (basic) [2, 5]: 5.7–6.4 (basic) [19, 20]
solubility at 24 h (physchem [3]; [6]): 11500 ± 570 µg/mL (≈ 22800 µM)
solubility at 24 h (physchem [3]; [7]): 11.9 ± 0.17 µg/mL (≈ 23.5 µM)
solubility at 24 h (physchem [3]; [8]): 81.4 ± 1.74 µg/mL (≈ 161 µM)
solubility in pediatric vs adult medium (Pnc-FeSSGF (cow's milk formula) vs adult FeSSGF): significantly lower solubility
solubility in pediatric vs adult medium (Pns-FeSSGF (soy formula) vs adult FeSSGF): significantly higher solubility
solubility in pediatric vs adult medium (all pediatric fed intestinal media (Pnb-FeSSIF, Pnc-FeSSIF, Pi-FeSSIF) vs adult FeSSIF-V2): significant solubility differences
solubility in pediatric vs adult medium (pediatric fasted gastric fluids (Pn-FaSSGF and Pi-FaSSGF) vs adult FaSSGF, ANOVA p ≤ 0.05): higher solubility in both pediatric gastric fluids; however, these differences were not statistically significant

COC(=O)Nc1nc2ccc(C(=O)c3ccccc3)cc2[nH]1 [Mebendazole]
logP [2, 5]: 2.80
pKa (basic) [2, 5]: 3.5 (basic)

Nc1ccc(O)c(C(=O)O)c1 [Mesalazine]
logP [2, 5]: 0.98 [8]
pKa (basic) [2, 5]: 5.69
pKa (acidic) ([2]; Table 1, reference per cell): 2.3
pKa (basic) ([2]; no reference given): 5.7

CC(C)(O)c1ccccc1CC[C@@H](SCC1(CC(=O)O)CC1)c1cccc(/C=C/c2ccc3ccc(Cl)cc3n2)c1 [Montelukast]
pKa (basic) [2, 5]: 2.7
pKa (acidic) ([2]; Table 1, reference per cell): 5.8

O=C1CN(/N=C/c2ccc([N+](=O)[O-])o2)C(=O)N1 [Nitrofurantoin]
solubility at 48 h (physchem [1]): 390 ± 6.35 µg/mL (≈ 1640 µM)
pKa (acidic) ([2]; Table 1, reference per cell): 7.2 (acidic) [13]
solubility at 24 h (physchem [3]; [6]): 196 ± 11.7 µg/mL (≈ 823 µM)
solubility at 24 h (physchem [3]; [7]): 215.7 ± 1.96 µg/mL (≈ 906 µM)
solubility at 24 h (physchem [3]; [8]): 209 ± 3.22 µg/mL (≈ 879 µM)
Sp/Sa (%) vs 80–[…] risk assessment limits (all pediatric media tested): within the 80–125% risk assessment limits
solubility differences between adults and pediatrics (all pediatric media tested): no significant solubility differences

NC(=O)N1c2ccccc2C=Cc2ccccc21 [carbamazepine]
solubility in pediatric gastric fluids in comparison to adult gastric fluids ([4]; fasted gastric fluids, previous study): statistical different (p ≤ 0.05) and outside the purported bioequivalence criterion

Nc1ccc(S(=O)(=O)c2ccc(N)cc2)cc1 [dapsone]
logP ([2]; no reference given): 0.97

COC1=CC(=O)C[C@@H](C)[C@]12Oc1c(Cl)c(OC)cc(OC)c1C2=O [griseofulvin]
Sp/Sa (%) [4, 9]: below 80 % of adult values

COc1ccc2c(c1)c(CC(=O)O)c(C)n2C(=O)c1ccc(Cl)cc1 [indomethacin]
logP ([2]; no reference given): 4.3
Sp/Sa (%) vs 80–[…] threshold ([4]; newborn gastric media (Pn-FaSSGF), previous study): outside the limits of the 80–125% threshold

O=C1NC(=O)C(c2ccccc2)(c2ccccc2)N1 [phenytoin]
Sp/Sa (%) ([4]; Pnc-FeSSIF, compound of the previous study): significant lower
Sp/Sa (%) [4, 9]: below 80 % of adult values
